Where a name gives a salt, the structure may show the parent alone.

In the experiment the target is Mu-type opioid receptor (Bos taurus, UniProt P79350). The experiment in a line: Binding affinity against Opioid receptor mu 1 of calf cortex using […] as radioligand.
Mu-type opioid receptor, sequence (P79350 whole entry): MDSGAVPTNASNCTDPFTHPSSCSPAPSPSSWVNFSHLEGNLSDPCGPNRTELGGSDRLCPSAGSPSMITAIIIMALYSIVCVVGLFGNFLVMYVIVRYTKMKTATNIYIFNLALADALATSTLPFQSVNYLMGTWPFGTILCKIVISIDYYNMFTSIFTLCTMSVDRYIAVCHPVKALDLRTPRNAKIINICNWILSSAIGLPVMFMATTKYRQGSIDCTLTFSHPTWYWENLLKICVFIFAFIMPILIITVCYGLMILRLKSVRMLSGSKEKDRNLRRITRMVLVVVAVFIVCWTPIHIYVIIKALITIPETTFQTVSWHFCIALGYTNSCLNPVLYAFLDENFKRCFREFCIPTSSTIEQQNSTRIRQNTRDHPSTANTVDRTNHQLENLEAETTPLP
`COCCC1CC2CN3CCc4c([nH]c5ccccc45)C(C(=O)OC)(C2)C13` (racemic) [ZOLUNICANT HYDROCHLORIDE] returned a Ki of 1100 nM.

In turn, `COCCC1CC2CN3CCc4c([nH]c5ccccc45)C(C(=O)OC)(C2)C13` (stereo in doubt; (-)) [ZOLUNICANT HYDROCHLORIDE] gave a Ki of 13000 nM.

As to `COCCC1CC2CN3CCc4c([nH]c5ccccc45)C(C(=O)OC)(C2)C13` (stereo in doubt; (+)) [ZOLUNICANT HYDROCHLORIDE], the Ki was found to be 740 nM.

The Ki is a dissociation constant, usually derived from enzyme kinetics or from competition with a known ligand.
